For this assay, the system named is BDF1 mice, colon carcinoma 38 sc, T/C %. The assay is described as follows: NCI In Vivo Anticancer Drug Screen. Data for tumor model Colon Carcinoma 38 (subcutaneous) in B6D2F1 (BDF1) mice. Conditions: endpoint: median tumor weight (est.), higher = larger tumour. Here is the method: The antitumor activity of compounds was measured in mice bearing transplantable tumors. Survival or tumor size were measured and the results are expressed as the measurement made in the treated group (T) divided by the measurement made in the vehicle treated control group (C). The tumor model used in this assay is Colon Carcinoma 38 (subcutaneous) in B6D2F1 (BDF1) mice

[1] abbreviates: dose: 6.25 mg/kg/injection, schedule: Q07DX002 (ip), vehicle: saline.
[2] abbreviates: dose: 12.5 mg/kg/injection, schedule: Q07DX002 (ip), vehicle: saline.
Where [3] appears, read: dose: 25.0 mg/kg/injection, schedule: Q07DX002 (ip), vehicle: saline.
The mark [4] stands for this setting: dose: 50.0 mg/kg/injection, schedule: Q07DX002 (ip), vehicle: saline.
[5] abbreviates: dose: 100.0 mg/kg/injection, schedule: Q07DX002 (ip), vehicle: saline.
[6] abbreviates: dose: 200.0 mg/kg/injection, schedule: Q07DX002 (ip), vehicle: saline.
Where [7] appears, read: dose: 3.12 mg/kg/injection, schedule: Q07DX002 (ip), vehicle: saline.
Where [8] appears, read: dose: 25.0 mg/kg/injection, schedule: Q07DX002 (ip), vehicle: saline with Tween-80.
Where [9] appears, read: dose: 10.0 mg/kg/injection, schedule: Q07DX002 (ip), vehicle: suspension in saline.

“And” between values parts separate entries of the source, which are not always exact repeats. Equal entries are not always repeated. Inconclusive results are not listed.

For `CCC12C[N+]3([O-])CCc4c([nH]c5ccccc45)C(C(=O)OC)(c4cc5c(cc4OC)N(C)C4C(O)(C(=O)OC)C(OC(C)=O)C6(CC)C=CCN7CCC54C76)CC(C3)C1O2` (stereo not drawn), the T/C is, setting by setting: (dose: 1.25 mg/kg/injection, schedule: Q07DX002 (ip), vehicle: water) 113 % of control; (dose: 2.5 mg/kg/injection, schedule: Q07DX002 (ip), vehicle: water) 90 % of control; (dose: 5.0 mg/kg/injection, schedule: Q07DX002 (ip), vehicle: water) 84 % of control; (dose: 10.0 mg/kg/injection, schedule: Q07DX002 (ip), vehicle: water) 108 % of control; (dose: 20.0 mg/kg/injection, schedule: Q07DX002 (ip), vehicle: water) 82 % of control; (dose: 40.0 mg/kg/injection, schedule: Q07DX002 (ip), vehicle: water) 94 % of control.

Regarding `COC1=NCN=C2SC=C(N)N=C12`, the T/C was 102 % of control under setting [1]; 91 % of control under setting [2]; 104 % of control (dose: 12.5 mg/kg/injection, schedule: Q07DX003 (ip), vehicle: saline); 101 % of control under setting [3]; 85 % of control under setting [4]; 151 % of control (dose: 50.0 mg/kg/injection, schedule: Q07DX003 (ip), vehicle: saline). The T/C (dose: 100.0 mg/kg/injection, schedule: Q07DX003 (ip), vehicle: saline) is 154 % of control.

Regarding `CC[As](=O)(O)CC`, the T/C reads like this: under setting [2], 101 % of control; under setting [3], 110 % of control; under setting [5], 81 % of control; under setting [6], 97 % of control; (dose: 400.0 mg/kg/injection, schedule: Q07DX002 (ip), vehicle: saline) 110 % of control.

Regarding `NC1CCCCC1N.O=S(=O)([O-])CCCNC1CCCCC1.O=S(=O)([O-])CCCNC1CCCCC1.[Pt+4]`, the T/C by setting is: (dose: 0.78 mg/kg/injection, schedule: Q07DX002 (ip), vehicle: saline) 50 % of control; (dose: 1.56 mg/kg/injection, schedule: Q07DX002 (ip), vehicle: saline) 38 % of control; under setting [7], 62 % of control; under setting [1], 25 % of control and 47 % of control; under setting [2], 14 % of control.

Consider `O/N=C/c1ccccc1O.O/N=C/c1ccccc1O.[Cu]`, for which the T/C by setting is: (dose: 3.12 mg/kg/injection, schedule: Q07DX002 (ip), vehicle: saline with Tween-80) 89 % of control and 100 % of control; (dose: 6.25 mg/kg/injection, schedule: Q07DX002 (ip), vehicle: saline with Tween-80) 92 % of control and 100 % of control; (dose: 12.5 mg/kg/injection, schedule: Q07DX002 (ip), vehicle: saline with Tween-80) 102 % of control and 108 % of control; under setting [8], 87 % of control and 104 % of control.

For `N[C@@H](Cc1ccc(N(CCCl)CCCl)cc1)C(=O)O`, the T/C (dose: 2.0 mg/kg/injection, schedule: Q07DX002 (ip), vehicle: Klucel (hydroxypropylcellulose) (HPC)) was 81 % of control; the T/C (dose: 2.0 mg/kg/injection, schedule: Q07DX003 (ip), vehicle: saline) is 106 % of control; the T/C (dose: 2.5 mg/kg/injection, schedule: Q07DX003 (ip), vehicle: saline with Tween-80) is 51 % of control; the T/C (dose: 3.75 mg/kg/injection, schedule: Q07DX002 (ip), vehicle: Klucel (hydroxypropylcellulose) (HPC)) was 54 % of control and 61 % of control; the T/C (dose: 4.0 mg/kg/injection, schedule: Q07DX002 (ip), vehicle: Klucel (hydroxypropylcellulose) (HPC)) was 107 % of control; the T/C (dose: 5.0 mg/kg/injection, schedule: Q07DX003 (ip), vehicle: saline with Tween-80) was 44 % of control. Moreover, the T/C runs as follows: (dose: 7.5 mg/kg/injection, schedule: Q07DX002 (ip), vehicle: Klucel (hydroxypropylcellulose) (HPC)) 33 % of control and 37 % of control; (dose: 15.0 mg/kg/injection, schedule: Q07DX002 (ip), vehicle: Klucel (hydroxypropylcellulose) (HPC)) 16 % of control; (dose: 16.0 mg/kg/injection, schedule: Q07DX002 (ip), vehicle: saline) 8 % of control (2×) and 11 % of control.

Take `NC(=S)c1cn(C2OC(CO)C(O)C2O)c2ncnc(N)c12` (stereo not drawn): the T/C reads like this: (dose: 1.25 mg/kg/injection, schedule: Q07DX002 (ip), vehicle: suspension in saline) 108 % of control; (dose: 2.5 mg/kg/injection, schedule: Q07DX002 (ip), vehicle: suspension in saline) 81 % of control; (dose: 5.0 mg/kg/injection, schedule: Q07DX002 (ip), vehicle: suspension in saline) 104 % of control; under setting [9], 82 % of control.

Regarding `Cc1nc(N)nc(N)c1-c1ccc(Cl)c(Cl)c1`, the T/C (dose: 1.25 mg/kg/injection, schedule: Q07DX002 (ip), vehicle: saline) is 106 % of control; the T/C (dose: 2.5 mg/kg/injection, schedule: Q07DX002 (ip), vehicle: saline) is 81 % of control and 102 % of control; the T/C (dose: 5.0 mg/kg/injection, schedule: Q07DX002 (ip), vehicle: saline) is 50 % of control and 72 % of control; the T/C (dose: 10.0 mg/kg/injection, schedule: Q07DX002 (ip), vehicle: saline) was 68 % of control and 69 % of control and 83 % of control; the T/C under setting [9] is 67 % of control; the T/C (dose: 20.0 mg/kg/injection, schedule: Q07DX002 (ip), vehicle: suspension in saline) was 46 % of control. For the same molecule, the T/C (dose: 80.0 mg/kg/injection, schedule: Q07DX002 (ip), vehicle: saline) is 55 % of control.

With `CCNC(=O)OCc1c(COC(=O)NCC)c(-c2ccc(Cl)c(Cl)c2)n2c1CCC2`, the T/C under setting [7] is 74 % of control; the T/C under setting [1] is 104 % of control; the T/C under setting [2] was 86 % of control; the T/C under setting [3] is 62 % of control; the T/C under setting [4] is 42 % of control.

In the case of `NNC(=O)c1ccncc1`, the T/C was 118 % of control (dose: 32.0 mg/kg/injection, schedule: Q07DX002 (ip), vehicle: saline); 77 % of control and 98 % of control (dose: 36.0 mg/kg/injection, schedule: Q07DX002 (ip), vehicle: saline); 104 % of control (dose: 64.0 mg/kg/injection, schedule: Q07DX002 (ip), vehicle: saline); 75 % of control and 95 % of control (dose: 72.0 mg/kg/injection, schedule: Q07DX002 (ip), vehicle: saline); 120 % of control (dose: 128.0 mg/kg/injection, schedule: Q07DX002 (ip), vehicle: saline); 120 % of control (dose: 144.0 mg/kg/injection, schedule: Q07DX002 (ip), vehicle: saline).

As to `C=C1C(O)C2(O)OCC34C(CC5C(C)=CC(=O)C(O)C5(C)C23)OC(=O)C(OC(=O)C(C)(O)CC)C14` (stereo not drawn), the T/C (dose: 0.12 mg/kg/injection, schedule: Q07DX002 (ip), vehicle: saline + alcohol) was 93 % of control; the T/C (dose: 0.25 mg/kg/injection, schedule: Q07DX002 (ip), vehicle: saline + alcohol) was 71 % of control; the T/C (dose: 0.5 mg/kg/injection, schedule: Q07DX002 (ip), vehicle: saline + alcohol) is 93 % of control; the T/C (dose: 1.0 mg/kg/injection, schedule: Q07DX002 (ip), vehicle: saline + alcohol) is 52 % of control; the T/C (dose: 2.0 mg/kg/injection, schedule: Q07DX002 (ip), vehicle: saline + alcohol) was 57 % of control.

Consider `Nc1nc(=O)n(C2OC(CO)C(O)C2O)cc1F` (stereo not drawn), for which the T/C was 124 % of control under setting [2]; 211 % of control under setting [3]; 118 % of control and 235 % of control under setting [4]; 60 % of control and 83 % of control under setting [6].

Turning to `NCCCNCCSP(=O)(O)O`, the T/C was 101 % of control under setting [1]; 103 % of control under setting [2]; 83 % of control under setting [8]; 81 % of control under setting [3]; 73 % of control (dose: 50.0 mg/kg/injection, schedule: Q07DX002 (ip), vehicle: saline with Tween-80); 109 % of control under setting [4]. Besides, the T/C reads like this: (dose: 100.0 mg/kg/injection, schedule: Q07DX002 (ip), vehicle: saline with Tween-80) 91 % of control; under setting [5], 72 % of control; (dose: 200.0 mg/kg/injection, schedule: Q07DX002 (ip), vehicle: saline with Tween-80) 82 % of control; under setting [6], 76 % of control; (dose: 400.0 mg/kg/injection, schedule: Q07DX002 (ip), vehicle: saline with Tween-80) 82 % of control.

These data come from PubChem BioAssay AID212 (DTP/NCI, 2004).
